Data set [1] deals with female white mice. The data set is described as follows: general tranquilizer activity in mice (exploratory loss, ptosis, catatonia, muscle tone, grip and lift reflexes, pinna twitch reflex, tremors, death). To be noted: for ED50: Mus musculus, po. Here is the method:
(§1) Groups of five Carworth CF1 S female mice, 16-20 g each, were fasted 16-22 hours before use. The mice were put in opaque plastic "shoe-box" cages 15-30 min. before injection, and then treated orally with 4, 12, 36, 108 and 324 mg/kg of the compound to be tested […] in 1% aqueous distilled water solution of methylcellulose (Methocel®). Each dose was given in a standard volume of 0.45 ml. Observations were made at 0.5, 2 and 24 hours after dosing. ED50 values were calculated for each parameter including death (LD50). The ED50 and LD50 values are the doses at which 50% of the animals would be expected to respond.
(§2) Exploratory Activity - The mouse is placed on a stainless steel wire mesh screen (8 inches × 12 inches, 3 mesh per inch, 174 inch mesh openings) "shoe-box" lid (1 inch high) and is observed for normal activities, such as nose movements, head movements with apparent visual examination of the area, and/or walking around on the screen. Absence of or marked depression of these activities for 5 seconds constitutes loss of exploratory activity.
(§3) Ptosis - The mouse is picked up by the tail and placed on the screen with its head facing the observer. Bilateral eyelid closure of 50% or more two seconds after placement is considered ptosis.
(§4) Catatonia - The mouse is placed with its front paws on the edge of a stainless steel "shoe-box" cover, 1 inch high, covered with adhesive tape. Failure to remove both paws from the cover's edge within 5 seconds constitutes catatonia.
(§5) Muscle Tone - The observer gently strokes the abdominal musculature of the mouse with thumb and forefinger. Flaccidity (or rarely, tenseness) is recorded.
(§6) Grip and Lift Reflexes - The mouse is gently swung by the tail toward a horizontal 12 gauge wire tautly stretched 25 cm above the bench. After the mouse grasps the wire with its forepaws, its posterior end is held directly below the wire. A normal mouse grasps the wire with its forepaws and immediately lifts its hind limbs to the wire. Failure to grasp the wire with the forepaws in both trials constitutes loss of the grip reflex; failure to lift the hind limbs to grasp the wire with at least one hind paw within 5 seconds constitutes loss of the lift reflex.
(§7) Pinna Twitch Reflex - The mouse is placed on the bar 10-20 cm horizontally and 9 cm vertically from a Galton whistle adjusted for 13 kc (5 mm on the whistle scale) and is subjected to several short bursts of sound.
(§8) The ED50 values, i.e., the dose which caused the response in 50% of the mice, are tabulated.

Assay in data set [2]: as above
To be noted: mouse, in vivo, po. Here is the method: as §1, §2, §3, §4, §5, §6, §7, §8

Data set [3] relates to phenylquinone-induced writhing. Briefly: analgesic activity: prevention of phenylquinone-induced writhing in mice. Format: in vivo, mouse (Carworth CF1 S female mice). To be noted: oral, phenylquinone 1.1 mg/kg intraperitoneally. An excerpt:
This mouse test is predictive of analgesic response in humans. [E. Siegmund, R. Cadmus and G. Lee, Proc. Soc.
ED50 values were obtained graphically from the data.
Background: Writhing tests count abdominal constrictions after an irritant is injected.

Where [4] appears, read: oral, mice, observed at 0.5, 2 and 24 hours.
Where [5] appears, read: oral, mice, observed at 0.5, 2 and 24 hours, hydrochloride.
Where [6] appears, read: read-out: ED50 Catatonia, oral, mice, observed at 0.5, 2 and 24 hours.
The mark [7] stands for this setting: read-out: ED50 Exploratory Loss Visual, oral, mice, observed at 0.5, 2 and 24 hours.
The mark [8] stands for this setting: read-out: ED50 Muscle Tone, oral, mice, observed at 0.5, 2 and 24 hours.
Where [9] appears, read: read-out: ED50 Ptosis, oral, mice, observed at 0.5, 2 and 24 hours.
Setting [10] is: read-out: ED50 Reflexes Grip, oral, mice, observed at 0.5, 2 and 24 hours.
[11] abbreviates: read-out: ED50 Reflexes Lift, oral, mice, observed at 0.5, 2 and 24 hours.
Where [12] appears, read: read-out: ED50 Reflexes Pinna, oral, mice, observed at 0.5, 2 and 24 hours.
Where [13] appears, read: read-out: ED50 Tremors, oral, mice, observed at 0.5, 2 and 24 hours.

For orientation: LD50 means the dose at which mortality reaches 50%. By ED50 is commonly meant the dose that gives a 50% effect, or the effect in half of the subjects.

Counter-ions that a name gives are not always drawn. Like-named read-outs stand apart in the source and are kept apart here. Some results are limits rather than exact numbers.

In data set [1] (24-hour value, oral, mice), `CC1[C@@H]2c3ccccc3[C@@H]3C[C@@]2(CN1CC1CCCC1)c1ccccc13` (stereo partly drawn) [Example 3h, 2-cyclopentylmethyl-1-methyl-trans-2,3,8,12b-tetrahydro-1H-3a,8-methanodibenzo[3,4:6,7]-cyclohepta[1,2-c]pyrrole hydrochloride] showed an LD50 of over 324 mg/kg. Further, in data set [1] (setting [4]), the “ED50 Muscle Tone” value was determined as 20 mg/kg, the “ED50 Reflexes Grip” value is given as over 324 mg/kg and the “ED50 Tremors” value is listed as over 324 mg/kg. In data set [1] (setting [5]), the “ED50 Catatonia” value was found to be 12 mg/kg, the “ED50 Exploratory Loss Visual” value was under 4 mg/kg, the “ED50 Ptosis” value came to 20 mg/kg and the “ED50 Reflexes Lift” value is recorded as 20 mg/kg. Moreover, the “ED50 Reflexes Pinna” value in data set [1] (setting [5]) stood at 12 mg/kg.

`CN(C)CCCN1c2ccccc2Sc2ccc(Cl)cc21` [Chlorpromazine, reference compound] came in with an LD50 at 24 h in data set [2] of 850 mg/kg. The ED50 was 8 mg/kg in data set [1] (setting [6]); 7 mg/kg in data set [1] (setting [7]); 8 mg/kg in data set [1] (setting [8]); 7 mg/kg in data set [1] (setting [9]); 240 mg/kg in data set [1] (setting [10]); 8 mg/kg in data set [1] (setting [11]). The ED50 in data set [1] (setting [12]) was 5 mg/kg; in data set [1] (setting [13]) it was over 324 mg/kg.

In data set [2], `C[C@]12C[C@@]3(CN(CC4CCCCC4)C[C@@H]3c3ccccc31)c1ccccc12` (relative stereo) [Example 1, 2-Cyclohexylmethyl-8-methyl-trans-2,3,8,12b-tetra-hydro-1H-3a,8-methanodibenzo[3,4:6,7]cyclohepta[1,2-c]-pyrrole Hydrochloride] had an LD50 at 24 h of over 324 mg/kg. Besides, the ED50 in data set [1] (setting [6]) is 109 mg/kg; in data set [1] (setting [7]), 87 mg/kg; in data set [1] (setting [8]), 109 mg/kg; in data set [1] (setting [9]), 87 mg/kg; in data set [1] (setting [10]), over 324 mg/kg; in data set [1] (setting [11]), 97 mg/kg. The ED50 is 109 mg/kg in data set [1] (setting [12]); over 324 mg/kg in data set [1] (setting [13]); 30 mg/kg in data set [3] (Mus musculus, dose blocking writhing in 50% of mice, read-out: ED50 Phenylquinone Analgesia).

In the case of `CC1[C@@H]2c3ccccc3[C@@H]3C[C@@]2(CN1CC1CCCC1)c1ccccc13` (stereo partly drawn) [Example 3g, 2-cyclopentylmethyl-1-methyl-trans-2,3,8,12b-tetrahydro-1H-3a,8-methanodibenzo[3,4:6,7]cyclohepta[1,2-c]pyrrole, hydrochloride], in data set [2], the LD50 at 24 h is over 324 mg/kg. Moreover, the ED50 in data set [1] (setting [6]) was 20 mg/kg; in data set [1] (setting [7]) it was 7 mg/kg; in data set [1] (setting [8]) it was 20 mg/kg; in data set [1] (setting [9]), 12 mg/kg; in data set [1] (setting [10]), over 324 mg/kg; in data set [1] (setting [11]), 36 mg/kg. Further, the ED50 in data set [1] (setting [12]) was 20 mg/kg; in data set [1] (setting [13]), over 324 mg/kg. Besides, the “Phenylquinone Analgesia (activity in words)” value in data set [3] is listed as “Active”.

For `CN1C[C@@H]2c3ccccc3[C@]3(C)C[C@@]2(C1)c1ccccc13` (relative stereo) [Example 2, 2,8-Dimethyl-trans-2,3,8,12b-tetrahydro-1H-3a,8-methanodibenzo[3,4:6,7]cyclohepta[1,2-c]pyrrole Hydrochloride], the LD50 at 24 h in data set [2] was 300 mg/kg. Moreover, the ED50 in data set [1] (setting [6]) came to 60 mg/kg; in data set [1] (setting [7]), 60 mg/kg; in data set [1] (setting [8]), 36 mg/kg; in data set [1] (setting [9]), 60 mg/kg; in data set [1] (setting [10]), 60 mg/kg; in data set [1] (setting [11]), 60 mg/kg. The 50% effective dose (ED50) in data set [1] (setting [12]) and in data set [1] (setting [13]) was 60 mg/kg in each case. Further, the “Phenylquinone Analgesia (activity in words)” value in data set [3] is recorded as “Active”.

For `CN1C(=O)CN=C(c2ccccc2)c2cc(Cl)ccc21` [Diazepam, reference compound], the ED50 is 59 mg/kg in data set [1] (setting [6]); 87 mg/kg in data set [1] (setting [7]); 89 mg/kg in data set [1] (setting [8]); 79 mg/kg in data set [1] (setting [9]); 78 mg/kg in data set [1] (setting [10]); 4.4 mg/kg in data set [1] (setting [11]). Also, the ED50 in data set [1] (setting [12]) was 63 mg/kg; in data set [1] (setting [13]), over 324 mg/kg.
